Paper PMC8357487 (Current Research in Pharmacology and Drug Discovery, 2021)
Like-named read-outs stand apart in the source and are kept apart here.

How the values were obtained:
SARS-CoV-2 [1] = assay: microbe, parasite or virus in culture; format: cell-based
[2] = Cytotoxicity, MTS method, Vero CCL-81; format: cell-based; conditions: African monkey, Vero CCL-81 cells
icSARS-CoV-2-mNG = assay: microbe, parasite or virus in culture; format: cell-based, SARS-CoV-2; conditions: for EC50: Severe acute respiratory syndrome coronavirus 2, Caco-2, 48 h, read-out: mean EC50, icSARS-CoV-2-mNG inhibition assay
[3] = Cytotoxicity, MTS method, Huh-7; format: cell-based, human; conditions: human, Huh-7 cells
[4] = Cytotoxicity, MTS method, Calu-3; format: cell-based; conditions: human, Calu-3 cells
SARS-CoV-2 [5] = conditions: Caco-2 cells; ref Li et al., 2021a; cited from earlier work
[6] = Cytotoxicity, MTS method, Caco-2; format: cell-based; conditions: human, Caco-2 cells
[7] = humans; ref Humeniuk et al., 2020; cited from earlier work
Huh-7 cells = assay: Cytotoxicity, MTS method, Huh-7; format: cell-based, human; conditions: MTS
[8] = monkeys; ref Warren et al., 2016; cited from earlier work
[9] = Severe acute respiratory syndrome coronavirus 2, 48 h
[10] = Severe acute respiratory syndrome coronavirus 2, Caco-2, 72 h
[11] = Severe acute respiratory syndrome coronavirus 2, Calu-3, 72 h

| SMILES | EC50 (SARS-CoV-2 [1]; [9]) [µM] | EC90 (SARS-CoV-2 [1]; [9]) [µM] | EC50 (SARS-CoV-2 [1]; [10]) [µM] | EC90 (SARS-CoV-2 [1]; [10]) [µM] | EC50 (SARS-CoV-2 [1]; [11]) [µM] | EC90 (SARS-CoV-2 [1]; [11]) [µM] | CC50 [2] [µM] | EC50 difference of GS-441524 compared to remdesivir, icSARS-CoV-2-mNG assay (icSARS-CoV-2-mNG; Caco-2 cells) [fold] | EC50 (icSARS-CoV-2-mNG) [µM] | CC50 [3] [µM] | CC50 [4] [µM] | Difference in EC50 between GS-441524 and remdesivir (SARS-CoV-2 [5]) [fold] | CC50 [6] [µM] | plasma half-life [7] [h] | Cytotoxicity in words (Huh-7 cells) | plasma half-life [8] |
| --- | --- | --- | --- | --- | --- | --- | --- | --- | --- | --- | --- | --- | --- | --- | --- | --- |
| N#C[C@@]1(c2ccc3c(N)ncnn23)O[C@H](CO)[C@@H](O)[C@H]1O [GS-441524] | 0.8 | 1.6 | 0.08 | 1.42 | 0.25 | 2.35 | > 100 | 70 | 1.3 | > 100 | > 100 | 6 | > 100 | – | – | – |
| CCC(CC)COC(=O)[C@H](C)N[P@](=O)(OC[C@H]1O[C@@](C#N)(c2ccc3c(N)ncnn23)[C@H](O)[C@@H]1O)Oc1ccccc1 [Remdesivir] | 0.7 | 1.7 | 0.001 | 0.022 | 0.11 | 0.49 | – | – | 0.018 | 2.1 | 72.8 | – | > 100 | ~1 | quite toxic | about 0.4 h |
